Results on 21 molecules are retold here after patent US8680159B2, “Bradykinin 1 receptor modulating compounds” (Gruenenthal GmbH, priority 2010, dated 2014).

In assay [1] the target is T1, B1R receptor of the rat (CHO K1 cells stably transfected with the B1R gene of the rat) (Rattus norvegicus, UniProt P97583).
T1 construct: expressed in transfected cells; host or cells: CHO K1 cells (Chinese hamster ovary), stably transfected
T1 sequence (P97583 1-337): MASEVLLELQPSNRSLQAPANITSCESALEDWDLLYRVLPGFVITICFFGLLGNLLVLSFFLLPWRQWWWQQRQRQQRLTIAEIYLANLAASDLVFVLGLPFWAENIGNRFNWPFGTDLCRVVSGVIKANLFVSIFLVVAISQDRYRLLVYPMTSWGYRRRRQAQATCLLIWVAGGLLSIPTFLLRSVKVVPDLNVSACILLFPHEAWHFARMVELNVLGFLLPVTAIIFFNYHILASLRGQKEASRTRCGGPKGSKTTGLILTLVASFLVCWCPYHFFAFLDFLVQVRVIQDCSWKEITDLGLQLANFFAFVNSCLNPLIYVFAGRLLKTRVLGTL
Put plainly: Functional study on the bradykinin receptor 1 (B1R), Ca2+ fluorescence (Fluo-4) FLIPR/Novostar assay, rB1R cells. Format: cell-based. The settings on record: for inhibition at 10 µM: CHO-K1, 10 μM. A digest of the protocol:
(§1)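 Test compounds (10 μM) were added first and the Ca2+ rise was scored as % activation against Lys-Des-Arg9-bradykinin (≥50 nM, human) or Des-Arg9-bradykinin (≥1 μM, rat). After 6-20 min, the matching agonist was given at its EC80, and % inhibition relative to maximal achievable inhibition was calculated.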

Assay [2] deals with T2, human B1R receptor (CHO K1 cells stably transfected with the human B1R gene) (Homo sapiens, UniProt P46663).
T2 construct: expressed in transfected cells; host or cells: CHO K1 cells (Chinese hamster ovary), stably transfected
T2 sequence (P46663 1-353): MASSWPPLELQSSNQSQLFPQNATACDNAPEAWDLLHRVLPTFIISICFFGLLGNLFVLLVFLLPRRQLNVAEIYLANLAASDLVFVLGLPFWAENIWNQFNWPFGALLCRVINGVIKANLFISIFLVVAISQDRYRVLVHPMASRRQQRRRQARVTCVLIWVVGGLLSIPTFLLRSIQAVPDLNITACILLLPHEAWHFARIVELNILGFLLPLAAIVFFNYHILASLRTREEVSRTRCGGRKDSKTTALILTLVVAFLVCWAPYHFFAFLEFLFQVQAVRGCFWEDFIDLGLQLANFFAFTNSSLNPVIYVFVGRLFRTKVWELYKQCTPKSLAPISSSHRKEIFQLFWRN
Put plainly: Functional study on the bradykinin receptor 1 (B1R), Ca2+ fluorescence (Fluo-4) FLIPR/Novostar assay, hB1R cells. Format: cell-based. A digest of the protocol:
as §1

The mark [3] stands for this setting: read-out: % Inhibition (r-B1R) at 10 μM.
Where [4] appears, read: CHO-K1, read-out: % Inhibition (h-B1R) at 10 μM.
The mark [5] stands for this setting: read-out: % inhibition (rat B1R) at 10 μM.
[6] abbreviates: CHO-K1, read-out: % inhibition (human B1R) at 10 μM.

Broadly, the inhibition is the change of the read-out against control, counted positive when it falls.

Each structure is given as a SMILES string. Read-outs that look alike come from different tables or passages of the source.

`CN(C(=O)N(C)C1CCc2ccc(C(=O)N(C)C3CCN(c4ccncc4)CC3)cc21)c1ccccc1Cl` (stereo not drawn) [CC_H-51, 3-[[(2-Chlorophenyl)-methyl-carbamoyl]-methyl-amino]-N-methyl-N-(1-pyridin-4-yl-piperidin-4-yl)-2,3-dihydro-1H-indene-5-carboxylic acid amide]: the inhibition at 10 µM in assay [1] (setting [3]) stood at 90%; in assay [2] (setting [4]), 99%.

Turning to `CN(C(=O)c1ccc2c(c1)C(NC(=O)c1cccc(Cl)c1Cl)CC2)C1CCN(c2ccc3cnccc3c2)CC1` (stereo not drawn) [CC_H-52, 3-[(2,3-Dichloro-benzoyl)amino]-N-(1-isoquinolin-6-yl-piperidin-4-yl)-N-methyl-2,3-dihydro-1H-indene-5-carboxylic acid amide], the results for the inhibition at 10 µM in assay [1] (setting [3]) and in assay [2] (setting [4]) were 98% and 99%, respectively.

Regarding `CN(C(=O)c1ccc2c(c1)C(NS(=O)(=O)c1c(Cl)cccc1C(F)(F)F)CC2)C1CCN(c2ccncc2)CC1` (stereo not drawn) [CC_H-54, 3-[[[2-Chloro-6-(trifluoromethyl)-phenyl]sulfonyl]amino]-N-methyl-N-(1-pyridin-4-yl-piperidin-4-yl)-2,3-dihydro-1H-indene-5-carboxylic acid amide], the inhibition at 10 µM in assay [1] (setting [3]) turned out to be 104%; in assay [2] (setting [4]), 100%.

As to `CN(C(=O)c1ccc2c(c1)C(NS(=O)(=O)Cc1ccccc1C(F)(F)F)CC2)C1CCN(c2ccc3cnccc3c2)CC1` (stereo not drawn) [CC_H-55, N-(1-Isoquinolin-6-yl-piperidin-4-yl)-N-methyl-3-[[[2-(trifluoromethyl)-phenyl]-methylsulfonyl]amino]-2,3-dihydro-1H-indene-5-carboxylic acid amide], the inhibition at 10 µM in assay [1] (setting [3]) is 96%; in assay [2] (setting [4]), 99%.

In the case of `CN(C(=O)NC1CCOc2ccc(C(=O)N(C)C3CCN(c4ccncc4)CC3)cc21)c1ccccc1Cl` (stereo not drawn) [CC_H-57, 4-[[(2-Chlorophenyl)-methyl-carbamoyl]amino]-N-methyl-N-(1-pyridin-4-yl-piperidin-4-yl)-3,4-dihydro-2H-chromene-6-carboxylic acid amide], the “% Inhibition (r-B1R) at 10 μM” value in assay [1] is on record as 101%. For the same molecule, the inhibition at 10 µM in assay [2] (setting [4]) was determined as 100%.

In the case of `CN(C(=O)c1ccc2c(c1)CCC2NC(=O)C1CCCCC1)C1CCN(c2ccncc2)CC1` (stereo not drawn) [CC_H-58, 1-(Cyclohexanecarbonylamino)-N-methyl-N-(1-pyridin-4-yl-piperidin-4-yl)-2,3-dihydro-1H-indene-5-carboxylic acid amide], the inhibition at 10 µM is 77% in assay [1] (setting [3]) and 96% in assay [2] (setting [4]).

For `CN(C(=O)c1ccc2c(c1)C(NC(=O)CCC1CCCC1)CC2)C1CCN(c2ccncc2)CC1` (stereo not drawn) [CC_H-59, 3-(3-Cyclopentyl-propanoylamino)-N-methyl-N-(1-pyridin-4-yl-piperidin-4-yl)-2,3-dihydro-1H-indene-5-carboxylic acid amide], the values for the inhibition at 10 µM in assay [1] (setting [3]) and in assay [2] (setting [4]) were 103% and 99%, respectively.

As to `CN(C(=O)c1ccc2c(c1)CCC2NS(=O)(=O)Cc1ccccc1C(F)(F)F)C1CCN(c2ccncc2)CC1` (stereo not drawn) [CC_H-61, N-Methyl-N-(1-pyridin-4-yl-piperidin-4-yl)-1-[[[2-(trifluoromethyl)-phenyl]-methylsulfonyl]amino]-2,3-dihydro-1H-indene-5-carboxylic acid amide], the inhibition at 10 µM is 80% in assay [1] (setting [3]) and 100% in assay [2] (setting [4]).

Regarding `CN(C(=O)c1ccc2c(c1)C(NC(=O)c1c(Cl)cccc1C(F)(F)F)CC2)C1CCN(c2ccc3cnccc3c2)CC1` (stereo not drawn) [CC_H-62, 3-[[2-Chloro-6-(trifluoromethyl)-benzoyl]amino]-N-(1-isoquinolin-6-yl-piperidin-4-yl)-N-methyl-2,3-dihydro-1H-indene-5-carboxylic acid amide], the inhibition at 10 µM in assay [1] (setting [3]) stood at 101%; in assay [2] (setting [4]) it was 84%.

For the molecule `CN(C(=O)c1ccc2c(c1)C(NC(=O)c1cc(F)ccc1Cl)CCO2)C1CCN(c2ccncc2)CC1` (stereo not drawn) [CC_H-63, 4-[(2-Chloro-5-fluoro-benzoyl)amino]-N-methyl-N-(1-pyridin-4-yl-piperidin-4-yl)-3,4-dihydro-2H-chromene-6-carboxylic acid amide], the inhibition at 10 µM came out at 103% in assay [1] (setting [3]) and 99% in assay [2] (setting [4]).

For `CN(C(=O)c1ccc2c(c1)CCC2NC(=O)c1cc(F)ccc1Cl)C1CCN(c2ccncc2)CC1` (stereo not drawn) [CC_H-64, 1-[(2-Chloro-5-fluoro-benzoyl)amino]-N-methyl-N-(1-pyridin-4-yl-piperidin-4-yl)-2,3-dihydro-1H-indene-5-carboxylic acid amide], the inhibition at 10 µM amounted to 87% in assay [1] (setting [3]) and 100% in assay [2] (setting [4]).

As to `CN(C(=O)c1ccc2c(c1)CCC2NC(=O)CCC1CCCC1)C1CCN(c2ccncc2)CC1` (stereo not drawn) [CC_H-65, 1-(3-Cyclopentyl-propanoylamino)-N-methyl-N-(1-pyridin-4-yl-piperidin-4-yl)-2,3-dihydro-1H-indene-5-carboxylic acid amide], the inhibition at 10 µM in assay [1] (setting [3]) amounted to 48%; in assay [2] (setting [4]), 98%.

Take `Cc1cccc(C)c1C(=O)NC1CCc2cc(C(=O)N(C)C3CCN(c4ccncc4)CC3)ccc21` (stereo not drawn) [CC_H-66, 1-[(2,6-Dimethyl-benzoyl)amino]-N-methyl-N-(1-pyridin-4-yl-piperidin-4-yl)-2,3-dihydro-1H-indene-5-carboxylic acid amide]: the results for the inhibition at 10 µM in assay [1] (setting [3]) and in assay [2] (setting [4]) were 86% and 99%, respectively.

Consider `CN(C(=O)c1ccc2c(c1)CCC2NC(=O)c1cccc(Cl)c1Cl)C1CCN(c2ccncc2)CC1` (stereo not drawn) [CC_H-67, 1-[(2,3-Dichloro-benzoyl)amino]-N-methyl-N-(1-pyridin-4-yl-piperidin-4-yl)-2,3-dihydro-1H-indene-5-carboxylic acid amide], for which the inhibition at 10 µM in assay [1] (setting [3]) worked out at 98%; in assay [2] (setting [4]), 100%.

As to `CN(C(=O)c1ccc2c(c1)CCC2NC(=O)c1ccccc1Cl)C1CCN(c2ccncc2)CC1` (stereo not drawn) [CC_H-68, 1-[(2-Chloro-benzoyl)amino]-N-methyl-N-(1-pyridin-4-yl-piperidin-4-yl)-2,3-dihydro-1H-indene-5-carboxylic acid amide], the inhibition at 10 µM in assay [1] (setting [3]) amounted to 87%; in assay [2] (setting [4]) it was 96%.

With `CN(C(=O)c1ccc2c(c1)C(N(C)C(=O)C1CCCCC1)CC2)C1CCN(c2ccncc2)CC1` (stereo not drawn) [CC_H-69, 3-(Cyclohexanecarbonyl-methyl-amino)-N-methyl-N-(1-pyridin-4-yl-piperidin-4-yl)-2,3-dihydro-1H-indene-5-carboxylic acid amide], in assay [1], the “% Inhibition (r-B1R) at 10 μM” value was determined as 104%. Besides, the inhibition at 10 µM in assay [2] (setting [4]) is 99%.

Turning to `CN(C(=O)c1ccc2c(c1)C(N(C)C(=O)CCC1CCCC1)CC2)C1CCN(c2ccncc2)CC1` (stereo not drawn) [CC_H-70, 3-(3-Cyclopentyl-propanoyl-methyl-amino)-N-methyl-N-(1-pyridin-4-yl-piperidin-4-yl)-2,3-dihydro-1H-indene-5-carboxylic acid amide], the figures for the inhibition at 10 µM in assay [1] (setting [3]) and in assay [2] (setting [4]) were 103% and 100%, respectively.

As to `O=C(NCCC1CCN(c2ccncc2)CC1)c1ccc2c(c1)C(NC(=O)c1ccccc1Cl)CC2` (stereo not drawn) [Example H-01, 3-[(2-Chloro-benzoyl)amino]-N-[2-(1-pyridin-4-yl-piperidin-4-yl)-ethyl]-2,3-dihydro-1H-indene-5-carboxylic acid amide], the inhibition at 10 µM in assay [1] (setting [5]) was found to be 102%; in assay [2] (setting [6]) it was 100%.

In the case of `O=C(NCC1CCN(c2ccncc2)CC1)c1ccc2c(c1)[C@H](NC(=O)c1ccccc1Cl)CC2` [Example H-03, (3R)-3-[(2-Chloro-benzoyl)amino]-N-[(1-pyridin-4-yl-piperidin-4-yl)-methyl]-2,3-dihydro-1H-indene-5-carboxylic acid amide], the inhibition at 10 µM in assay [1] (setting [5]) amounted to 108%; in assay [2] (setting [6]), 15%.

`O=C(NC1CCN(c2ccc(C(F)(F)F)cn2)C1)c1ccc2c(c1)[C@H](NC(=O)c1ccccc1Cl)CC2` (stereo partly drawn) [Example H-04, (3R)-3-[(2-Chloro-benzoyl)amino]-N-[1-[5-(trifluoromethyl)-pyridin-2-yl]-pyrrolidin-3-yl]-2,3-dihydro-1H-indene-5-carboxylic acid amide]: the inhibition at 10 µM was 47% in assay [1] (setting [5]) and 21% in assay [2] (setting [6]).

In the case of `CN(C(=O)c1ccc2c(c1)[C@H](NC(=O)c1ccccc1Cl)CC2)C1CCN(c2ccncc2)CC1` [Example H-06, (3R)-3-[(2-Chloro-benzoyl)amino]-N-methyl-N-(1-pyridin-4-yl-piperidin-4-yl)-2,3-dihydro-1H-indene-5-carboxylic acid amide], the inhibition at 10 µM in assay [1] (setting [5]) turned out to be 102%; in assay [2] (setting [6]) it was 100%.
